We go through one molecule from paper PMC12747936, “Rhamnose alleviates the proinflammatory response during endotoxemia via the CEACAM1/LGALS9-p38 axis” (Acta Biochimica et Biophysica Sinica, 2025).

The target in test [1] is T1, CEACAM1 (BMDMs) (Mus musculus, UniProt P31809).
T1 construct: endogenous protein in lysate of murine bone marrow-derived macrophages; band 150-250 kDa region discussed
T1 sequence (P31809 35-521): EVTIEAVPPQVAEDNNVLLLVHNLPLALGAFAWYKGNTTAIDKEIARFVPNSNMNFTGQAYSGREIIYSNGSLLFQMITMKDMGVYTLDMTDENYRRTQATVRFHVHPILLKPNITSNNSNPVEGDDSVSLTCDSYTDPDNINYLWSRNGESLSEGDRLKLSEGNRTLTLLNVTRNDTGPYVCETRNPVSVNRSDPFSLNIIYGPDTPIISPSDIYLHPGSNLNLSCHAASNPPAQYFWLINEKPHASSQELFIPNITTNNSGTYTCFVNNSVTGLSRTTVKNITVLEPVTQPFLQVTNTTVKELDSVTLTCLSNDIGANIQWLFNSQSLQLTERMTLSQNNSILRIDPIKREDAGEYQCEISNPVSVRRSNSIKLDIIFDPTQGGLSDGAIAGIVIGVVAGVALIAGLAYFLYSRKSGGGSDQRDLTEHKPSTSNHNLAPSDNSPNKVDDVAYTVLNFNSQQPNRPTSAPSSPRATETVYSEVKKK
Description: CETSA and DARTS, western blot. The following applies: BMDM lysate; CETSA 100 μM rhamnose, 2 h, 37-67°C; DARTS with pronase 1:1000, TNC buffer pH 8.0. Type of test: biochemical. In general terms: A western blot detects proteins with antibodies after separation by electrophoresis.

In test [2] the target is T2, CEACAM1 (THP-1-dMs) (Homo sapiens, UniProt P13688).
T2 construct: endogenous protein in lysate of PMA-differentiated THP-1 macrophages
T2 sequence (P13688 35-526): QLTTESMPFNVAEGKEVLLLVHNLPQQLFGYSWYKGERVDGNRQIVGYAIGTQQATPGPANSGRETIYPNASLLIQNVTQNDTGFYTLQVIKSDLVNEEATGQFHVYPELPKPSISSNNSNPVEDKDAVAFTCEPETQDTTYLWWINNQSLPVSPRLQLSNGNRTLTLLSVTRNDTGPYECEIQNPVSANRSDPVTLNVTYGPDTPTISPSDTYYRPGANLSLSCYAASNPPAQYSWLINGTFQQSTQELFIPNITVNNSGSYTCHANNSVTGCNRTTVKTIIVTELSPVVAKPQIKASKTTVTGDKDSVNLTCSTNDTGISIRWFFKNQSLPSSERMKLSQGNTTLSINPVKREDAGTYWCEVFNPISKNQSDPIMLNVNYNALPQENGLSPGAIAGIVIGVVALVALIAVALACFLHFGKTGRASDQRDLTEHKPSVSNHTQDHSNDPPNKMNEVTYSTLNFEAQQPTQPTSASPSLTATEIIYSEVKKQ
Kind of test: CETSA and DARTS, western blot. The settings on record: THP-1-dM lysate; CETSA 100 μM rhamnose, 2 h, 37-67°C; DARTS with pronase 1:1000, TNC buffer pH 8.0. The test is classed as biochemical.

On to `C[C@@H]1OC(O)[C@H](O)[C@H](O)[C@H]1O` (some centres unmarked) [rhamnose], for which the “CETSA and DARTS, western blot” value in test [1] is on record as “CETSA also demonstrated that rhamnose reduced the degradation rate of CEACAM1 in heat-denatured BMDMs”; in test [2] it was “rhamnose treatment increased the resistance of the CEACAM1 protein to protease hydrolysis”.
